Consider two compounds from US20250002450A1, “CATIONIC STEROID COMPOUNDS, METHOD OF OBTAINING THEREOF, FORMULATIONS COMPRISING THEREOF AND THEIR USES” (UNIVERSIDADE DO PORTO, priority 2021, published 2025).

Holding throughout (format): cell-based
The test system of assay [1] is Yersinia ruckeri ATCC 29473. Briefly: Antibacterial MIC/MBC (broth microdilution). In short, it runs like this:
(§1)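 Visible growth inhibition after 20 h at 37 degrees C defines the MIC, with compounds tested at 0.062-64 μg/mL in Mueller-Hinton broth 2 against about 5×10^5 CFU/mL. Bactericidal endpoint: 99.9% reduction of the starting inoculum on MH agar subculture.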
For orientation: Dilution methods test growth across graded concentrations, often in twofold steps.

Assay [2] has as its system Escherichia coli ATCC 25922. In words: Antibacterial MIC/MBC (broth microdilution). The conditions noted are these: for MBC / MIC: Escherichia coli ATCC 25922. In short, it runs like this: as §1
The test system of assay [3] is Pseudomonas aeruginosa ATCC 27853. In words: Antibacterial MIC/MBC (broth microdilution). The conditions noted are these: for MBC / MIC: Pseudomonas aeruginosa ATCC 27853. Put shortly:
as §1

Assay [4] relates to Klebsiella pneumoniae ATCC 13883. In words: Antibacterial MIC/MBC (broth microdilution). The conditions noted are these: for MBC / MIC: Klebsiella pneumoniae ATCC 13883. Put shortly: as §1
Assay [5] has as its system Salmonella enterica serovar Typhimurium CECT 443. Briefly: Antibacterial MIC/MBC (broth microdilution). In short, it runs like this: as §1
The subject of assay [6] is Gram-negative and Gram-positive bacteria. Briefly: Antibacterial activity, whole strain panel. The note with it: for spectrum of antibacterial activity (in words): all bacterial strains tested. The text has this:
(§2) Twelve reference bacterial strains and nine MDR clinically relevant bacterial strains were used in this study. Gram-negative bacteria comprised reference strains E. coli ATCC 25922, K. pneumoniae ATCC 13883, Salmonella enterica serovar Typhimurium CECT 443, P. aeruginosa ATCC 27853, A. baumannii ATCC 19606, C. jejuni ATCC 33560 (ATCC—American Type Culture Collection; CECT—Colección Espanola de Cultivos Tipo); clinical isolates E. coli SA/2, an extended-spectrum β-lactamase (ESBL)-producing strain and P. aeruginosa 33b, a pan-drug-resistant isolate; and animal isolates C. jejuni P5/4, a ciprofloxacin-resistant strain, C. jejuni 4432, C. jejuni 4433, C. jejuni 4448, and E. coli 2252, a COL-resistant strain [42]. Gram-positive strains included S. aureus ATCC 29213, E. faecalis ATCC 29212, S. pyogenes ATCC 19615, and environmental isolates methicillin-resistant S. aureus (MRSA) 66/1 [43], and VAN-resistant enterococci (VRE) E. faecalis B3/101 [44]. Gram-negative fish pathogens Yersinia ruckeri ATCC 29473, Listonella anguillarum ATCC 1924, and Tenacibaculum maritimum ATCC 43397 were also included.
(§3) Strains were kept in Trypto-Casein Soy agar (TSA—Biokar Diagnostics, Allone, Beauvais, France) slants and, before each assay, were sub-cultured in Mueller-Hinton agar (MHA—Biokar Diagnostics, Allone, Beauvais, France). Y. ruckeri ATCC 29473 and L. anguillarum ATCC 1924 were kept in Nutrient Agar (Condalab, Madrid, Spain) and T. maritimum ATCC 43397 was kept in TMM agar (Condalab, Madrid, Spain), and were sub-cultured in the respective culture media before each assay. For S. pyogenes ATCC 19615, CAMHB was supplemented with 3.75% lysed horse blood (LBH—Oxoid, Basingstoke, England), whereas for C. jejuni it was supplemented with 2.5% LHB. Colony-forming unit counts of the inoculum were conducted to determine the initial inoculum size (which should be approximately 5×10^5 CFU/mL). Sterility and growth controls were included in each assay. The 96-well U-shaped untreated polystyrene microtiter plates were incubated for 20 h at 37 degrees C. (42 degrees C. for C. jejuni, in a microaerophilic atmosphere) and the minimal inhibitory concentration (MIC) was determined as the lowest concentration of compound that prevented visible growth. The minimal bactericidal concentration (MBC) was determined by spreading 100 μL of the content of the wells with no visible growth on MH plates. The MBC was determined as the lowest concentration of compound that killed 99.9% of the initial inoculum after overnight incubation at 37 degrees C. Two independent assays were performed for reference and MDR strains.
(§4) An initial screening of the antibacterial activity of the compounds was performed by the Kirby-Bauer disk diffusion method, as recommended by the Clinical and Laboratory Standards Institute (CLSI). Briefly, sterile 6 mm blank paper disks (Oxoid, Basingstoke, England) impregnated with 15 μg of each compound were placed on inoculated MH agar plates. A blank disk with dimethylsulfoxide (DMSO) was used as a negative control. MH inoculated plates were incubated for 18-20 h at 37 degrees C. At the end of incubation, the inhibition halos where measured. The MIC was used to determine the antibacterial activity of each compound, in accordance with the recommendations of the CLSI. Two-fold serial dilutions of the compounds were prepared in Mueller-Hinton Broth 2 (MHB2—Sigma-Aldrich, St. Louis, MO, USA) within the concentration range of 0.062-64 μg/mL. CTX ranging between 0.031-16 μg/mL was used as a control. Sterility and growth controls were included in each assay. Purity checks and colony counts of the inoculum suspensions were also performed in order to ensure that the final inoculum density closely approximates the intended number (5×10^5 CFU/mL). The MIC was determined as the lowest concentration of compound that inhibited growth of the bacteria. The MBC was assessed by spreading 10 μL of culture collected from wells showing no visible growth on MH agar plates. […]

In assay [7] the test system is Tenacibaculum maritimum ATCC 43397. In words: Antibacterial disk diffusion.
Excerpt: as §2, §3, §4
On the technique in general: Agar diffusion results depend on both activity and mobility in agar.

Structures are written as SMILES. ≈ marks a conversion by molar mass, not a printed value. Like-named read-outs stand apart in the source and are kept apart here.

The MBC is the lowest tested concentration that kills the bacteria rather than only halting them. A word on the MIC: it is the least concentration at which growth counts as inhibited. As for `C[C@H](CCC(=O)NCCN)[C@H]1CC[C@H]2[C@@H]3CC[C@@H]4C[C@H](O)CC[C@]4(C)[C@H]3C[C@H](O)[C@]12C` [Compound 1, (R)—N-(2-aminoethyl)-4-((3R,5R,8R,9S,10S,12S,13R,14S,17R)-3,12-dihydroxy-10,13-dimethylhexadecahydro-1H-cyclopenta[a]phenanthren-17-yl) pentanamida], the MBC in assay [1] is 32 µg/mL (≈ 73.6 µM); in assay [2] it was 64 µg/mL (≈ 147 µM); in assay [3], 64 µg/mL (≈ 147 µM); in assay [4], 64 µg/mL (≈ 147 µM); in assay [5] it was 16 µg/mL (≈ 36.8 µM). Further, the MIC worked out at 16 µg/mL (≈ 36.8 µM) in assay [1]; 32 µg/mL (≈ 73.6 µM) in assay [2]; 64 µg/mL (≈ 147 µM) in assay [3]; 64 µg/mL (≈ 147 µM) in assay [4]; 16 µg/mL (≈ 36.8 µM) in assay [5]. Also, the “antibacterial activity (in words)” value is reported as “displayed antibacterial activity” in assay [1]; “active” in assay [2] (E. coli ATCC 25922); “active” in assay [3] (P. aeruginosa ATCC 27853); “active” in assay [4] (K. pneumoniae ATCC 13883); “exhibited antimicrobial activity” in assay [5]. Moreover, the “activity against Gram-negative bacteria (in words)” value in assay [6] is on record as “exhibited activities”. In addition, in assay [6], the “spectrum of antibacterial activity (in words)” value is on record as “active in every bacterial strain tested”. The same compound gave a Disk diffusion in assay [7] (Tenacibaculum maritimum ATCC 43397) of 20 mm.
Turning to `C[C@H](CCC(=O)N1CCNCC1)[C@H]1CC[C@H]2[C@@H]3CC[C@@H]4C[C@H](O)CC[C@]4(C)[C@H]3C[C@H](O)[C@]12C` [Compound 9, (R)-4-((3R,5R,8R,9S,10S,12S,13R,14S,17R)-3,12-dihydroxy-10,13-dimethylhexadecahydro-1H-cyclopenta[a]phenanthren-17-yl)-1-(piperazin-1-yl) pentan-1-one], the MBC in assay [1] (ATCC29473, read-out: MBC) is more than 64 µg/mL; in assay [2] (ATCC25922, read-out: MBC) it was more than 64 µg/mL; in assay [3] (ATCC27853, read-out: MBC) it was more than 64 µg/mL; in assay [4] (ATCC13883, read-out: MBC), more than 64 µg/mL; in assay [5] (read-out: MBC) it was 64 µg/mL (≈ 139 µM). Further, the minimal inhibitory concentration (MIC) in assay [1] (ATCC29473, read-out: MIC) is more than 64 µg/mL; in assay [2] (ATCC25922, read-out: MIC), more than 64 µg/mL; in assay [3] (ATCC27853, read-out: MIC) it was more than 64 µg/mL; in assay [4] (ATCC13883, read-out: MIC) it was more than 64 µg/mL; in assay [5] (read-out: MIC), 64 µg/mL (≈ 139 µM). The “activity against Gram-negative bacteria (in words)” value in assay [6] is recorded as “exhibited activities”. The “spectrum of antibacterial activity (in words)” value in assay [6] is recorded as “broad spectrum of activity”. Besides, the “Inhibition zone diameter (disk diffusion)” value in assay [7] (Tenacibaculum maritimum ATCC 43397, footnote *) amounted to 9 mm.
